Where two headings read alike, the source gives them in different places.
Biological target: recombinant eIF4E (Homo sapiens (Human), UniProt P06730)
Experiment: Fluorescence polarization competition assay for eIF4E binding potency
Summary of the method: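 Protein and fluorescent cap-analog probe (EDA-m7GDP-ATTO-550) were mixed first for 5 min, after which serially diluted compound was added to final 75 nM eIF4E, 20 nM probe, 1% DMSO. Reactions equilibrated 30 min at room temperature before polarization was measured.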

[1] = fluorescence polarization competition, 75 nM recombinant eIF4E, 20 nM EDA-m7GDP-ATTO-550, IC50 class, read-out: elF4E FP
[2] = inhibition of eIF4E/EDA-m7GDP-ATTO-550 binding by 50%, Table 4B calculated values, read-out: IC50

Sequence of recombinant eIF4E (P06730 whole entry): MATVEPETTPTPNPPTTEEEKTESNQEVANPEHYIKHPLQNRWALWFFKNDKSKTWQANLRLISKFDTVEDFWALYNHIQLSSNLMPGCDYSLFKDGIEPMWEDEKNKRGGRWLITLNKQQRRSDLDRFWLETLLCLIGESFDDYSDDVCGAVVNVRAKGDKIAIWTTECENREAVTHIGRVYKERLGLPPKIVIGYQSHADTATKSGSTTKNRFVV

| SMILES | IC50 [1] [nM] | IC50 [2] [nM] |
| --- | --- | --- |
| Cc1cc(-c2cc(Cl)ccc2OCCn2c(C)nc3cc(CNC(C)(C)C)c(OC(F)F)c(C#N)c3c2=O)c2scc(C(=O)O)c2n1 [compound 619] | < 50 | 6.34 |
| Cc1c(CN(C)C)c(C(F)(F)F)cc2nc(C)n(CCOc3ccc(Cl)cc3-c3ccnc4c(C(=O)O)csc34)c(=O)c12 [compound 620] | < 50 | 36.9 |
| Cc1nc2cc(C(F)(F)F)c(CN(C)C)c(F)c2c(=O)n1CCOc1ccc(Cl)cc1-c1ccnc2c(C(=O)O)csc12 [compound 621] | 50 to 1000 | 60 |
| Cc1nc2cc(C(F)F)c(CN(C)C)c(C#N)c2c(=O)n1CC#Cc1ccc(Cl)cc1-c1ccnc2c(C(=O)O)csc12 [compound 622] | < 50 | 43.8 |
| Cc1nc2cc(CN(C)C)c(C(F)(F)F)c(C#N)c2c(=O)n1CC#Cc1ccc(Cl)cc1-c1ccnc2c(C(=O)O)csc12 [compound 623] | < 50 | 4.77 |
| Cc1nc2cncc(C#N)c2c(=O)n1CC#Cc1ccc(Cl)cc1-c1ccnc2c(C(=O)O)csc12 [compound 624] | < 50 | 4.02 |
| Cc1nc2cnc(C#N)cc2c(=O)n1CC#Cc1ccc(Cl)cc1-c1ccnc2c(C(=O)O)csc12 [compound 625] | 50 to 1000 | 78 |
| Cc1nc2cc(CN(C)C)c(OC(F)F)c(C#N)c2c(=O)n1CC#Cc1ccc(Cl)cc1-c1ccnc2c(C(=O)O)csc12 [compound 626] | < 50 | 10.4 |
| Cc1cc(-c2cc(Cl)ccc2OCCn2c(C)nc3cc(C(F)F)c(C)c(C#N)c3c2=O)c2scc(C(=O)O)c2n1 [compound 627] | < 50 | 6.72 |
| Cc1cc(-c2cc(Cl)ccc2OCCn2c(C)nc3cc(C)c(C)c(C#N)c3c2=O)c2scc(C(=O)O)c2n1 [compound 628] | < 50 | 28.5 |
| Cc1cc(-c2cc(Cl)ccc2OCCn2c(C)nc3cc(C(F)(F)F)c(-c4ccncc4)c(C#N)c3c2=O)c2scc(C(=O)O)c2n1 [compound 629] | < 50 | 6.39 |
| Cc1cc(-c2cc(Cl)ccc2OCCn2c(C)nc3cc(C(F)(F)F)c(-c4cccnc4)c(C#N)c3c2=O)c2scc(C(=O)O)c2n1 [compound 630] | 50 to 1000 | 50.2 |
| Cc1cc(-c2cc(Cl)ccc2OCCn2c(C)nc3cc(C(F)(F)F)c(-c4ccccn4)c(C#N)c3c2=O)c2scc(C(=O)O)c2n1 [compound 631] | < 50 | 3.41 |
| Cc1cc(-c2cc(Cl)ccc2OCCn2c(C)nc3cc(C(F)(F)F)c(-n4ccnc4)c(C#N)c3c2=O)c2scc(C(=O)O)c2n1 [compound 632] | < 50 | 12 |
| Cc1cc(-c2cc(Cl)ccc2OCCn2c(C)nc3cc(C(F)(F)F)c(-n4cccn4)c(C#N)c3c2=O)c2scc(C(=O)O)c2n1 [compound 633] | < 50 | 12.9 |
| Cc1cc(-c2cc(Cl)ccc2OCCn2c(C)nc3cc(CN(C)C)c(C(F)(F)F)c(C#N)c3c2=O)c2scc(C(=O)O)c2n1 [compound 635] | < 50 | 10.6 |
| Cc1nc2cc(C(F)(F)F)cc(C#N)c2c(=O)n1CCOc1ccc(Cl)cc1-c1cc(CN(C)C)nc2c(C(=O)O)csc12 [compound 636] | < 50 | 33.2 |
| CCc1cc(-c2cc(Cl)ccc2OCCn2c(C)nc3cc(C(F)(F)F)c(CN4CCN(C)CC4)c(C#N)c3c2=O)c2scc(C(=O)O)c2n1 [compound 637] | < 50 | 16.6 |
| COc1cc(-c2cc(Cl)ccc2OCCn2c(C)nc3cc(C(F)(F)F)c(CN4CCN(C)CC4)c(C#N)c3c2=O)c2scc(C(=O)O)c2n1 [compound 638] | < 50 | 4.46 |

| SMILES | IC50 [1] [nM] | IC50 [2] [nM] |
| --- | --- | --- |
| CCc1cc(-c2cc(Cl)ccc2OCCn2c(C)nc3cc(CN(C)C)c(OC(F)F)c(C#N)c3c2=O)c2scc(C(=O)O)c2n1 [compound 639] | < 50 |  |
| Cc1nc2cc(C(F)(F)F)c(N3CCN(CC(F)(F)F)CC3)c(C#N)c2c(=O)n1CCOc1ccc(Cl)cc1-c1ccnc2c(C(=O)O)csc12 [compound 640] | < 50 | 24 |
| Cc1sc2c(-c3cc(Cl)ccc3OCCn3cnc4cc(C(F)(F)F)c(CN(C)C)c(C#N)c4c3=O)ccnc2c1C(=O)O [compound 641] | < 50 | 33.3 |
| Cc1cc(-c2cc(Cl)ccc2OCCn2c(C)nc3cc(C(F)(F)F)c(CN4C[C@@H](C)O[C@@H](C)C4)c(C#N)c3c2=O)c2scc(C(=O)O)c2n1 [compound 642] | < 50 | 3.63 |
| Cc1sc2c(-c3cc(Cl)ccc3C#CCn3c(C)nc4cc(C(F)(F)F)c(CN5CCN(C)CC5)c(C#N)c4c3=O)ccnc2c1C(=O)O [compound 643] | < 50 | 0.832 |
| Cc1nc2cc(C(F)(F)F)c(CN3CCN(C)CC3)c(C#N)c2c(=O)n1CCOc1ccc(Cl)cc1-c1cc(CCF)nc2c(C(=O)O)csc12 [compound 644] | < 50 | 4.97 |
| Cc1nc2cc(C(F)(F)F)c(CN3CCN(C)CC3)c(C#N)c2c(=O)n1CCOc1ccc(Cl)cc1-c1cc(CF)nc2c(C(=O)O)csc12 [compound 645] | < 50 | 31.3 |
| Cc1cc(-c2cc(Cl)ccc2OCCn2c(C)nc3cc(C(F)F)c(CN4CCN(C)CC4)c(C#N)c3c2=O)c2scc(C(=O)O)c2n1 [compound 646] | < 50 | 41.4 |
| Cc1cc(-c2cc(Cl)ccc2OCCn2c(C)nc3ccc(CN4CCN(C)CC4)c(C#N)c3c2=O)c2scc(C(=O)O)c2n1 [compound 647] | < 50 | 19.8 |
| Cc1cc(-c2cc(Cl)ccc2OCCn2c(C)nc3cc(C(F)(F)F)c(CN4CCNCC4)c(C#N)c3c2=O)c2scc(C(=O)O)c2n1 [compound 649] | < 50 | 15 |
| Cc1cc(-c2cc(Cl)ccc2OCCn2c(C)nc3cc(CN(C)C)c(C)c(C#N)c3c2=O)c2scc(C(=O)O)c2n1 [compound 650] | < 50 | 28.3 |
| Cc1nc2cc(CN(C)Cc3cn(C)nn3)c(OC(F)F)c(C#N)c2c(=O)n1CCOc1ccc(Cl)cc1-c1ccnc2c(C(=O)O)csc12 [compound 651] | < 50 | 21.8 |
| Cc1cc(-c2cc(Cl)ccc2OCCn2c(C)nc3cc(C(F)(F)F)c(C4CN(C)C4)c(C#N)c3c2=O)c2scc(C(=O)O)c2n1 [compound 652] | < 50 | 6.68 |
| Cc1cc(-c2cc(Cl)ccc2OCCn2c(C)nc3cc(Cl)c(-c4cccnc4)c(C#N)c3c2=O)c2scc(C(=O)O)c2n1 [compound 653] | < 50 | 22.7 |
| Cc1cc(-c2cc(Cl)ccc2OCCn2c(C)nc3cc(-c4cccnc4)cc(C#N)c3c2=O)c2scc(C(=O)O)c2n1 [compound 654] | < 50 | 3.12 |
| Cc1nc2cc(C(F)(F)F)c(N3CCN(CCF)CC3)c(C#N)c2c(=O)n1CCOc1ccc(Cl)cc1-c1ccnc2c(C(=O)O)csc12 [compound 655] | < 50 | 13.5 |
| Cc1nc(N2CCN(C)C3CC32)c(C#N)c2c(=O)n(CC#Cc3ccc(Cl)cc3-c3ccnc4c(C(=O)O)csc34)c(C)nc12 (stereo not drawn) [compound 656] | < 50 | 33.4 |
| N#Cc1cccc2c1c(=O)n(CCOc1ccc(Cl)cc1-c1ccnc3c(C(=O)O)csc13)c1ccccc21 [compound 657] | < 50 | 45.7 |
| O=C(O)c1csc2c(-c3cc(Cl)ccc3OCCn3c(=O)c4ccccc4c4cnncc43)ccnc12 [compound 658] | > 1000 | 1290 |

Reference: patent publication US11286268B1, “EIF4E-inhibiting compounds and methods” (EFFECTOR THERAPEUTICS, INC., priority 2019, dated 2022)
